{
  "source": "paper PMC12654037",
  "about": "“Norditerpene Natural Products from Subterranean Fungi with Anti-Parasitic Activity” (Microorganisms, 2025)",
  "system": "HFF cells",
  "assay": "HFF cytotoxicity assay",
  "type": "cell-based",
  "method": "HCT-8 and HFF cytotoxicity assays: Cytotoxicity of the compounds was determined against both confluent (the conditions of the infection assays) and growing HCT-8 and HFF host cells, as previously described. Cells were seeded into white-sided, clear-bottom 96-well plates and grown to either 40% or 100% confluency. Compounds were added to cells at various concentrations up to 100 µM in a final DMSO concentration of 0.5%. DMSO was run in parallel as a vehicle control. After 48 h, the viability of the cells was determined by either quantification of cellular ATP (Cell-Titer Glo cell viability assay; Promega, Madison WI, USA) or by MTT assay. Viability was determined 24 h after compound addition to HFF cells or 48 h after compound addition to HCT-8 cells or HepG2 cells. The percent cell growth was then calculated with the following formula: % Cell Growth = [RLUcompound/RLUDMSO] × 100. Samples were run in triplicate with two to three biological replicates.",
  "data": [
    {"smiles": "CO[C@H]1OC(=O)C=C2[C@@]13O[C@@H]3[C@H]1OC(=O)[C@@]3(C)CCC[C@@]2(C)[C@@H]13", "note": "[compound 1, oidiolactone A]", "values": [
      {"measurement": "TC50 HFF (confluent)", "setting": "confluent", "result": "> 30", "unit": "µM"},
      {"measurement": "toxicity to host cells (no toxicity up to)", "setting": "confluent HFF, conditions of the infection assay, 24 h, cellular ATP", "result": "> 100", "unit": "µM"},
      {"measurement": "cytotoxicity against sub-confluent HFF", "setting": "sub-confluent", "result": "no cytotoxicity observed"}
    ]}
  ]
}
